Tests used:
Factor Xa = target: T1, Factor Xa (Homo sapiens, UniProt P00742); assay: Anti-Factor Xa activity assay (chromogenic substrate CS-11(22)); assay type: biochemical; settings: ratio of compound IC50 to apixaban IC50; Factor Xa 0.1 U/ml, absorbance at 405 nm, 37° C.
T1 construct: purchased MERK
Description: I. Anti-Factor Xa Activity Assay
Substrate: CS-1122 (Hyphen)
Buffer: 50 mM TrisHCl, 150 mM NaCl, PH8.3
100 μL of buffer, 50 μL of different concentrations of compounds (diluted with buffer) and 50 μl of 0.1 U/ml Factor Xa enzyme (diluted with buffer) were added to a 96-well plate. After 15 min of exposure, 50 μL of chromogenic substrate 2.5 mg/ml CS-11 (22) was added. The substrate hydrolysis was monitored by measuring absorbance at 405 nm at 37° C. for up to 30 min (interval: 30 seconds) using a microplate spectrophotometer. IC50 was calculated by bliss.

Male SD rats [1] = assay: Rat tail bleeding model; assay type: in vivo; settings: rat tail transected 0.5 to 4 hours after administration; prolongation = ratio of treated vs. mean vehicle value; relative to apixaban
Description: II Rat Tail Bleeding Model
Male SD rats were allocated randomly and administrated. After the administration, the rats were anesthetized by intraperitoneal injection of 10% chloral hydrate. At the time point of 0.5 to 4 hours (Tmax in PK) after the administration, the tails of anesthetized rats were transected 3 mm from the tip and vertically immersed in saline at 37° C. The time point when the continuous blood flow ceased for >30 s was measured. The prolongation of bleeding time was expressed as a ratio of treated vs. the mean vehicle value. Effects of compounds were determined as described below.

Male SD rats [2] = assay: Arteriovenous shunt model in rats; assay type: in vivo, rat; parameters: concentration or dose not given beside the values; settings: rats given orally 2-4 hours before shunt opened; shunt 15 minutes; thrombus weight, treated vs. mean vehicle
Text: III. Arteriovenous Shunt Model in Rats
Two 10 cm-long polyethylene tubings (1.50 and 2.88 mm of inner and outer diameter, respectively) linked to a central part (8 cm-long, 2.11 and 3.77 mm of inner and outer diameter, respectively) containing a 6 cm silk thread and filled with heparin (3.125 U/ml) were placed between the right carotid artery and the left jugular vein in rats.
Male SD rats were anesthetized by intraperitoneal injection of 10% chloral hydrate after oral dose, inverted fixation, then the right catotid artery and left vena jugularis externa were isolated, the proximal and distal sutures of catotid artery were tied. The syringe needle were cannulated into the catotid artery and fasted, the other of the tube was cannulated into the right vena jugularis externa. Rats were given orally 2-4 hours before the shunt was opened. Blood flowed from the right carotid artery into the polyethylene tubing and then return to left vena jugularis externa. The shunt was then disconnected 15 minutes later and the silk thread covered with thrombus was immediately withdrawn and weighed. The wet weight of the thrombus was determined. Then the silk thread was dried at 60° C. for 4 h to get the dry weight of the thrombus. The anti-thrombotic effects of these agents were expressed as percentage inhibition of thrombus formation based on the treated vs. the corresponding mean vehicle.

T1 sequence (P00742 235-488 limits assumed): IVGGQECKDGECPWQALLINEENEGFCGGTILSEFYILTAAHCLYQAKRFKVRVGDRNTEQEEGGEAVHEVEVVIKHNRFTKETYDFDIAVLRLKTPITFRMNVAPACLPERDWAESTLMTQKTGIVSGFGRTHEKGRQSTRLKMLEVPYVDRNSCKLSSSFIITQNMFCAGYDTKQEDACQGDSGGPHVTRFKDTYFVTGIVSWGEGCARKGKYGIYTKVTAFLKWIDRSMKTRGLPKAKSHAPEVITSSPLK
T1 sequence (P00742 41-179 partner limits assumed): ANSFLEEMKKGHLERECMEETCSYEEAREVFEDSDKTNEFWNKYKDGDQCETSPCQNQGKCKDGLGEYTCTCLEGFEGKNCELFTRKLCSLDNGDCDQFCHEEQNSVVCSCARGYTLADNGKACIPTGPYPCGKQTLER

IC50(Compound)/IC50(apixaban) (Factor Xa)	The Prolongation of bleeding time (compound)/The Prolongation of bleeding time(apixaban) (Male SD rats [1])	SMILES	Inhibition of thrombus formation (%) (Male SD rats [2])
<1	–	COc1ccc(-n2nc(C(N)=O)c3c2C(=O)N(c2ccc(N4CCSCC4=O)cc2)CC3)cc1 [A 3, 1-(4-methoxyphenyl)-6-(4-(3-oxothiomorpholino)phenyl)-7-oxo-4,5,6,7-tetrahydro-1H-pyrazolo[3,4-c]pyridine-3-carboxamide]	–
<1	–	COc1ccc(-n2nc(C(N)=O)c3c2C(=O)N(c2ccc(N4CCCCC4=O)c(C)c2)CC3)cc1 [A 16, 1-(4-methoxyphenyl)-6-(3-methyl-4-(2-oxopiperidin-1-yl)phenyl)-7-oxo-4,5,6,7-tetrahydro-1H-pyrazolo[3,4-c]pyridine-3-carboxamide]	–
<1	–	COc1ccc(-n2nc(C(N)=O)c3c2C(=O)N(c2ccc(N4CCOCC4=O)c(C)c2)CC3)cc1 [A 17, 1-(4-methoxyphenyl)-6-(3-methyl-4-(3-oxomorpholino)phenyl)-7-oxo-4,5,6,7-tetrahydro-1H-pyrazolo[3,4-c]pyridine-3-carboxamide]	–
<1	–	COc1ccc(-n2nc(C(N)=O)c3c2C(=O)N(c2ccc(-n4ccccc4=O)c(C)c2)CC3)cc1 [A 19, 1-(4-methoxyphenyl)-6-(3-methyl-4-(2-oxopyridin-1(2H)-yl)phenyl)-7-oxo-4,5,6,7-tetrahydro-1H-pyrazolo[3,4-c]pyridine-3-carboxamide]	–
<2	<1	CCOc1ccc(-n2nc(C(N)=O)c3c2C(=O)N(c2ccc(-n4cccc(C)c4=O)cc2)CC3)cc1F [A 27, 1-(3-fluoro-4-ethoxyphenyl)-6-(4-(3-methyl-2-oxopyridin-1(2H)-yl)phenyl)-7-oxo-4,5,6,7-tetrahydro-1H-pyrazolo[3,4-c]pyridine-3-carboxamide]	68.7
<1	<1	CCOc1ccc(-n2nc(C(N)=O)c3c2C(=O)N(c2ccc(-n4cccc(C)c4=O)cc2)CC3)cc1 [A 28, 1-(4-ethoxyphenyl)-6-(4-(3-methyl-2-oxopyridin-1(2H)-yl)phenyl)-7-oxo-4,5,6,7-tetrahydro-1H-pyrazolo[3,4-c]pyridine-3-carboxamide]	73.1
<2	<1	CCOc1ccc(-n2nc(C(N)=O)c3c2C(=O)N(c2ccc(N4CCCCC4=O)cc2)CC3)cc1Cl [A 29, 1-(3-chloro-4-ethoxyphenyl)-6-(4-(2-oxopiperidin-1-yl)phenyl)-7-oxo-4,5,6,7-tetrahydro-1H-pyrazolo[3,4-c]pyridine-3-carboxamide]	67.4
<2	<1	CCOc1ccc(-n2nc(C(N)=O)c3c2C(=O)N(c2ccc(-n4cccc(C)c4=O)cc2)CC3)cc1Cl [A 30, 1-(3-chloro-4-ethoxyphenyl)-6-(4-(3-methyl-2-oxopyridin-1(2H)-yl)phenyl)-7-oxo-4,5,6,7-tetrahydro-1H-pyrazolo[3,4-c]pyridine-3-carboxamide]	–
<1	<1	CCOc1ccc(-n2nc(C(N)=O)c3c2C(=O)N(c2ccc(N4CCCCC4=O)c(C)c2)CC3)cc1 [A 31, 1-(4-ethoxyphenyl)-6-(3-methyl-4-(2-oxopiperidin-1-yl)phenyl)-7-oxo-4,5,6,7-tetrahydro-1H-pyrazolo[3,4-c]pyridine-3-carboxamide]	71.5
<1	<1	CCOc1ccc(-n2nc(C(N)=O)c3c2C(=O)N(c2ccc(N4CCCCC4=O)c(C)c2)CC3)cc1F [A 32, 1-(3-fluoro-4-ethoxyphenyl)-6-(3-methyl-4-(2-oxopiperidin-1-yl)phenyl)-7-oxo-4,5,6,7-tetrahydro-1H-pyrazolo[3,4-c]pyridine-3-carboxamide]	61.4
<1	<1	CCOc1ccc(-n2nc(C(N)=O)c3c2C(=O)N(c2ccc(N4CCOCC4=O)c(C)c2)CC3)cc1 [A 33, 1-(4-ethoxyphenyl)-6-(3-methyl-4-(3-oxomorpholino)phenyl)-7-oxo-4,5,6,7-tetrahydro-1H-pyrazolo[3,4-c]pyridine-3-carboxamide]	60.8
<1	<1	CCOc1ccc(-n2nc(C(N)=O)c3c2C(=O)N(c2ccc(N4CCOCC4=O)c(C)c2)CC3)cc1F [A 34, 1-(3-fluoro-4-ethoxyphenyl)-6-(3-methyl-4-(3-oxomorpholino)phenyl)-7-oxo-4,5,6,7-tetrahydro-1H-pyrazolo[3,4-c]pyridine-3-carboxamide]	62.5
<2	<1	CCOc1ccc(-n2nc(C(N)=O)c3c2C(=O)N(c2ccc(N4CCCC4=O)c(C)c2)CC3)cc1 [A 35, 1-(4-ethoxyphenyl)-6-(3-methyl-4-(2-oxopyrrolidin-1-yl)phenyl)-7-oxo-4,5,6,7-tetrahydro-1H-pyrazolo[3,4-c]pyridine-3-carboxamide]	–
<1	<1	CCOc1ccc(-n2nc(C(N)=O)c3c2C(=O)N(c2ccc(N4CCCC4=O)c(C)c2)CC3)cc1F [A 36, 1-(3-fluoro-4-ethoxyphenyl)-6-(3-methyl-4-(2-oxopyrrolidin-1-yl)phenyl)-7-oxo-4,5,6,7-tetrahydro-1H-pyrazolo[3,4-c]pyridine-3-carboxamide]	71.6
<1	<1	CCOc1ccc(-n2nc(C(N)=O)c3c2C(=O)N(c2ccc(-n4ccccc4=O)c(C)c2)CC3)cc1 [A 37, 1-(4-ethoxyphenyl)-6-(3-methyl-4-(2-oxopyridin-1(2H)-yl)phenyl)-7-oxo-4,5,6,7-tetrahydro-1H-pyrazolo[3,4-c]pyridine-3-carboxamide]	63.7
<1	<1	CCOc1ccc(-n2nc(C(N)=O)c3c2C(=O)N(c2ccc(-n4ccccc4=O)c(C)c2)CC3)cc1F [A 38, 1-(3-fluoro-4-ethoxyphenyl)-6-(3-methyl-4-(2-oxopyridin-1(2H)-yl)phenyl)-7-oxo-4,5,6,7-tetrahydro-1H-pyrazolo[3,4-c]pyridine-3-carboxamide]	70.5
<1	–	COc1ccc(-n2nc(C(N)=O)c3c2C(=O)N(c2ccc(N4CCCCC4=O)c(C)c2)CC3)cc1F [A 47, 1-(3-fluoro-4-methoxyphenyl)-6-(3-methyl-4-(2-oxopiperidin-1-yl)phenyl)-7-oxo-4,5,6,7-tetrahydro-1H-pyrazolo[3,4-c]pyridine-3-carboxamide]	–
<1	–	COc1ccc(-n2nc(C(N)=O)c3c2C(=O)N(c2ccc(N4CCOCC4=O)c(C)c2)CC3)cc1F [A 48, 1-(3-fluoro-4-methoxyphenyl)-6-(3-methyl-4-(3-oxomorpholino)phenyl)-7-oxo-4,5,6,7-tetrahydro-1H-pyrazolo[3,4-c]pyridine-3-carboxamide]	–
<1	–	COc1ccc(-n2nc(C(N)=O)c3c2C(=O)N(c2ccc(-n4ccccc4=O)c(C)c2)CC3)cc1F [A 50, 1-(3-fluoro-4-methoxyphenyl)-6-(3-methyl-4-(2-oxopyridin-1(2H)-yl)phenyl)-7-oxo-4,5,6,7-tetrahydro-1H-pyrazolo[3,4-c]pyridine-3-carboxamide]	–
<1	–	COc1ccc(-n2nc(C(N)=O)c3c2C(=O)N(c2ccc(-n4cccc(C)c4=O)c(C)c2)CC3)cc1F [A 51, 1-(3-fluoro-4-methoxyphenyl)-6-(3-methyl-4-(3-methyl-2-oxopyridin-1(2H)-yl)phenyl)-7-oxo-4,5,6,7-tetrahydro-1H-pyrazolo[3,4-c]pyridine-3-carboxamide]	–
